{"source": "patent US20080125358A1", "about": "“Methods for Chk2 inhibitor patient selection” (UNIVERSITY OF MASSACHUSETTS MEDICAL SCHOOL, priority 2006, published 2008)", "key": {"Chk2": {"target": "Chk2 (Homo sapiens, UniProt O96017)", "sequence (O96017 whole entry)": "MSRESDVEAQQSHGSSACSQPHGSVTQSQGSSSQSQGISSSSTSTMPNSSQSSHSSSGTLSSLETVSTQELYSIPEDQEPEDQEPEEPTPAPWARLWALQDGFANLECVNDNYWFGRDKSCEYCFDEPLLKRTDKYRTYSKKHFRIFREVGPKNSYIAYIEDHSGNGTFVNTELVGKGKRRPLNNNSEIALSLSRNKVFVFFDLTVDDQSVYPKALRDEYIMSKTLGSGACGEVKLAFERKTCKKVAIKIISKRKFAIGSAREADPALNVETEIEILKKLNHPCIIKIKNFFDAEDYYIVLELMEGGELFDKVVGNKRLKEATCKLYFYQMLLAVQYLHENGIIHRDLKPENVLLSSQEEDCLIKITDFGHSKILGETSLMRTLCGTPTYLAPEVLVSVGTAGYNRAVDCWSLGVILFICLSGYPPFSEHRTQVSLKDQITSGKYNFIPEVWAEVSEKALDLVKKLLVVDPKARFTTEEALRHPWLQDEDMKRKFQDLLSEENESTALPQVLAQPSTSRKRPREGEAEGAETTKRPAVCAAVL", "conditions": "expressed and purified Chk2; cited from earlier work"}, "HCT116 cells [1]": {"test_system": "HCT116 cells", "test": "Colony formation assay in soft agar", "format": "cell-based", "conditions": "increasing doses of ionizing radiation", "protocol": "Wild-type HCT116 cells were transduced with a replication deficient adenovirus encoding GFP, Chk2-DN, or Thr^34→Ala^34 survivin DN at an m.o.i. of 50. O'Connor et al., “A p34(cdc2) survival checkpoint in cancer” Cancer Cell 2:43-54 (2002). Twenty-four hours later, approximately 3×10^4 cells were treated with or without ionizing radiation, and suspended in 1.5 ml of DMEM plus 10% FBS and 0.35% bactoagar (BD) in 6-well culture plates containing 1.5 ml of 0.75% agarose in growth medium at the bottom layer. Plates were incubated at 37° C. in 5% CO2 for 2 weeks. Colonies were stained with 0.005% crystal violet (Sigma-Aldrich), and counted using a dissecting microscope under high-power field."}, "[2]": {"test_system": "HCT116 clones #102 and #202", "test": "Xenograft tumor model, HCT116 clones conditionally expressing Chk2-DN", "format": "in vivo, mice", "protocol": "All examples involving animals were approved by an Institutional Animal Care and Use Committee. […] Approximately 2.5×10^6 cells were injected into each hindlimb flank of 6-8 week old female immunocompromised CB17 SCID/beige mice (i.e., thereby generating 2 tumors/mouse). […] Tumor growth was monitored with a caliper according to the formula ½ [length (mm)]×[width (mm)]^2. At the end of the experiment, tumors were excised, and frozen sections from the various groups were stained with control IgG or a FITC-conjugated antibody to HA, and analyzed by fluorescence microscopy."}, "[3]": {"test_system": "prostate carcinoma PC3 cells", "test": "Survivin expression after DNA damage, Western blotting", "format": "cell-based, human", "conditions": "analyzed after 12 hours", "protocol": "(§1) Tumor cell types were exposed to ionizing radiation at doses ranging between 5-10 Gray (Gy) using a ^137Cs source (Gammacell 40), or, alternatively, treated with adriamycin (0-100 nM, Sigma). Cells were harvested after 2-48 h, and analyzed by Western blotting. Antibodies were used having affinities for; i) survivin (1:1000, Novus Biologicals); ii) Chk2 (1:500; Upstate Biotechnology); iii) cytochrome c (1:100; BD Biosciences-Pharmingen); iv) COX-IV (1:500; BD Biosciences-Clontech); v) caspase-3 (1:1000, Cell Signaling Technology); vi) cleaved caspase-3 (1:1000, Cell Signaling Technology); vii) cyclin B1 (1:1000, GNS1, Santa Cruz Biotechnology, Inc.); viii) XIAP (1:1000; Transduction Laboratories); xi) β-actin (1:5000, clone AC-15, A5441; Sigma-Aldrich); and xii) Thr^68-phosphorylated Chk2 (Cell Signaling Technology)."}, "HCT116 cells [4]": {"test_system": "HCT116 cells", "test": "Caspase activity and cell death by multiparametric flow cytometry after DNA damage", "format": "cell-based", "conditions": "p53+/+ or p53-/- HCT116 cells, ionizing radiation", "protocol": "For gene silencing by short interference RNA (siRNA), tumor cell types were transfected with control (VIII) or survivin-derived (S4) double stranded (ds) RNA oligonucleotides (50 nM) using oligofectamine (3 μl/well), as previously described. Beltrami et al., “Acute ablation of survivin uncovers p53-dependent mitotic checkpoint functions and control of mitochondrial apoptosis” J Biol Chem 279:2077-84 (2004). Alternatively, cells were transfected with control or SMART® pool siRNA oligonucleotides to Chk1 or Chk2 (Dharmacon) using oligofectamine. A replication-deficient adenovirus expressing Chk2-DN was constructed using the pAd-Easy® system, and used at a multiple of infection (m.o.i.) of 50.\nTumor cell types were treated with or without ionizing radiation, harvested after 24 h, and analyzed for changes in cell cycle distribution by propidium iodide staining and flow cytometry. Alternatively, cells were exposed to ionizing radiation, and analyzed after 24-48 h for propidium iodide staining (red channel) and active caspase-3 activity (CaspaTag®, Intergen®, green channel), by simultaneous multiparametric flow cytometry. Dohi et al., “Mitochondrial survivin inhibits apoptosis and promotes tumorigenesis” J Clin Invest 114:1117-1127 (2004)."}, "MCF-7 cells": {"test_system": "MCF-7 cells", "test": "Ionizing radiation-induced survivin expression, Western blotting", "format": "cell-based", "conditions": "MCF-7 cells transfected", "protocol": "as §1\nFor gene silencing by short interference RNA (siRNA), tumor cell types were transfected with control (VIII) or survivin-derived (S4) double stranded (ds) RNA oligonucleotides (50 nM) using oligofectamine (3 μl/well), as previously described. Beltrami et al., “Acute ablation of survivin uncovers p53-dependent mitotic checkpoint functions and control of mitochondrial apoptosis” J Biol Chem 279:2077-84 (2004). Alternatively, cells were transfected with control or SMART® pool siRNA oligonucleotides to Chk1 or Chk2 (Dharmacon) using oligofectamine. […]"}, "HCT116 clones #101, #102": {"test_system": "HCT116 clones #101, #102", "test": "Conditional induction of apoptosis, propidium iodide staining and flow cytometry", "format": "cell-based", "conditions": "doxycycline induction plus adriamycin, adriamycin-sensitive clones", "from_the_text": "Breast adenocarcinoma MCF-7, colon adenocarcinoma HCT116, or prostate adenocarcinoma PC3 cells were obtained from the American Type Culture Collection (ATCC, Manassas Va.), and maintained in culture as recommended by the supplier. Wild-type, p53^−/−, or Chk2^−/− HCT116 cells were kindly provided by Dr. B. Vogelstein (Johns Hopkins University, Baltimore, Md.). The rat insulinoma cell line INS-1 stably transfected with mitochondrially-targeted survivin fused to GFP was created as previously described. Dohi et al., “Mitochondrial survivin inhibits apoptosis and promotes tumorigenesis” J Clin Invest 114:1117-1127 (2004). Wild-type HCT116 cells were stably transfected to conditionally express a kinase-dead Asp^347 Asn^347 Chk2 dominant-negative (DN) cDNA under the control of a tetracycline (tet)-regulated promoter (tet-on system, Clontech), as described previously. Grossman et al., “Inhibition of melanoma tumor growth in vivo by survivin targeting” Proc. Natl. Acad. Sci. U.S.A. 98:635-640 (2001). Conditional induction of Chk2-DN was monitored after addition of 2 μg/ml doxycycline (dox).\n[…] Alternatively, cells were exposed to ionizing radiation, and analyzed after 24-48 h for propidium iodide staining (red channel) and active caspase-3 activity (CaspaTag®, Intergen®, green channel), by simultaneous multiparametric flow cytometry. […]"}}, "data": [{"compound": "CN[C@@H]1C[C@H]2O[C@@](C)([C@@H]1OC)n1c3ccccc3c3c4c(c5c6ccccc6n2c5c31)C(=O)NC4O", "note": "(stereo partly drawn) [UCN-01]", "values": [{"measurement": "confirmation of Chk2 potency", "setting": "Chk2", "value": "could not be confirmed"}]}, {"compound": "Thr^34→Ala^34 survivin-DN: dominant-negative survivin mutant delivered by replication deficient adenovirus", "values": [{"measurement": "colony formation in soft agar", "setting": "HCT116 cells [1]", "value": "nearly completely abolished"}]}, {"compound": "COc1cccc2c1C(=O)c1c(O)c3c(c(O)c1C2=O)C[C@@](O)(C(=O)CO)C[C@@H]3O[C@H]1C[C@H](N)[C@H](O)[C@H](C)O1", "note": "[adriamycin]", "values": [{"measurement": "effect on tumor growth", "setting": "[2]; adriamycin-resistant clone #202, SCID/beige mice", "value": "no effect"}, {"measurement": "inhibition of tumor growth", "setting": "[2]; adriamycin-sensitive clone #102, SCID/beige mice, adriamycin 2 mg/kg", "value": "50-60%"}, {"measurement": "survivin expression", "setting": "[3]", "value": "concentration-dependent increase in survivin"}]}, {"compound": "Chk2-DN: kinase-dead Asp347 to Asn347 Chk2 dominant-negative mutant, expressed by transfection, adenovirus or tet-on system", "values": [{"measurement": "induction of caspase activity and cell death", "setting": "HCT116 cells [4]", "value": "comparable induction of caspase activity and cell death"}, {"measurement": "ionizing radiation-induced survivin expression", "setting": "MCF-7 cells", "value": "abolished the increase in survivin expression"}, {"measurement": "colony formation in soft agar", "setting": "HCT116 cells [1]", "value": "nearly completely abolished"}, {"measurement": "induction of apoptosis", "setting": "HCT116 clones #101, #102", "value": "2- to 4 fold"}]}]}
